Our source for the inhibition and IC50 values is US7977477B2, “Benzimidazole derivatives and their use as protein kinase inhibitors” (Astex Therapeutics, Limited, priority 2003, dated 2011).

Some results are limits rather than exact numbers.

Assay [1] addresses T1, CDK2/CyclinA (Homo sapiens, UniProt P24941).
T1 construct: purchased Upstate Biotechnology
As to the kind of experiment: CDK2 kinase inhibitory activity (Example 306, Protocol A or B). It counts as biochemical. As to conditions: for inhibition at 0.003 µM: read-out: % inhibition (CDK inhibitory activity); for IC50: protocol of Example 306, read-out: IC50 (CDK inhibitory activity). The procedure:
Compounds of the invention were tested for kinase inhibitory activity using either Protocol A or Protocol B.
1.7 μl of active CDK2/CyclinA (Upstate Biotechnology, 10 U/μl) is diluted in assay buffer (250 μl of 10× strength assay buffer (200 mM MOPS pH 7.2, 250 mM β-glycerophosphate, 50 mM EDTA, 150 mM MgCl2), 11.27 μl 10 mM ATP, 2.5 μl 1M DTT, 25 μl 100 mM sodium orthovanadate, 708.53 μl H2O), and 10 μl mixed with 10 μl of histone substrate mix (60 μl bovine histone H1 (Upstate Biotechnology, 5 mg/ml), 940 μl H2O, 35 μCi γ^33P-ATP) and added to 96 well plates along with 5 μl of various dilutions of the test compound in DMSO (up to 2.5%). The reaction is allowed to proceed for 5 hours before being stopped with an excess of ortho-phosphoric acid (30 μl at 2%).
γ^33P-ATP which remains unincorporated into the histone H1 is separated from phosphorylated histone H1 on a Millipore MAPH filter plate. The wells of the MAPH plate are wetted with 0.5% orthophosphoric acid, and then the results of the reaction are filtered with a Millipore vacuum filtration unit through the wells. Following filtration, the residue is washed twice with 200 μl of 0.5% orthophosphoric acid. Once the filters have dried, 25 μl of Microscint 20 scintillant is added, and then counted on a Packard Topcount for 30 seconds.
The % inhibition of the CDK2 activity is calculated and plotted in order to determine the concentration of test compound required to inhibit 50% of the CDK2 activity (IC50).
Activated CDK2/CyclinA (Brown et al, Nat. Cell Biol., 1, pp 438-443, 1999; Lowe, E. D., et al Biochemistry, 41, pp 15625-15634, 2002) is diluted to 125 pM in 2.5× strength assay buffer (50 mM MOPS pH 7.2, 62.5 mM O-glycerophosphate, 12.5 mM EDTA, 37.5 mM MgCl2, […], 2.5 mM DTT, 2.5 mM sodium orthovanadate, 0.25 mg/ml bovine serum albumin), and 10 fi mixed with 10 A1 of histone substrate mix (60 μl bovine histone H1 (Upstate Biotechnology, 5 mg/ml), 940 μl H2O, 35 μCi γ^33P-ATP) and added to 96 well plates along with 5 μl of various dilutions of the test compound in DMSO (up to 2.5%). The reaction is allowed to proceed for 2 to 4 hours before being stopped with an excess of ortho-phosphoric acid (5 μl at 2%).
γ^33P-ATP which remains unincorporated into the histone H1 is separated from phosphorylated histone H1 on a Millipore MAPH filter plate. The wells of the MAPH plate are wetted with 0.5% orthophosphoric acid, and then the results of the reaction are filtered with a Millipore vacuum filtration unit through the wells. Following filtration, the residue is washed twice with 200 μl of 0.5% orthophosphoric acid. Once the filters have dried, 20 μl of Microscint 20 scintillant is added, and then counted on a Packard Topcount for 30 seconds.

For assay [2], the target named is CDK1/cyclinB (Homo sapiens, UniProt P06493). As to the kind of experiment: CDK selectivity assay, CDK1. It counts as biochemical. The following applies: read-out: IC50 against CDK 1. The procedure:
(§1) Compounds of the invention were tested for kinase inhibitory activity against a number of different kinases using the general protocol described in Example 129, but modified as set out below.
(§2) Kinases are diluted to a 10× working stock in 20 mM MOPS pH 7.0, 1 mM EDTA, 0.1% γ-mercaptoethanol, 0.01% Brij-35, 5% glycerol, 1 mg/ml BSA. One unit equals the incorporation of 1 nmol of phosphate per minute into 0.1 mg/ml histone H1, or CDK7 substrate peptide at […] with a final ATP concentration of 100 uM.
(§3) The substrate for all the CDK assays (except CDK7) is histone H1, diluted to 10× working stock in 20 mM MOPS pH 7.4 prior to use. The substrate for CDK7 is a specific peptide diluted to 10× working stock in deionised water.
(§4) Assay Procedure for CDK1/cyclinB, CDK2/cyclinA. CDK2/cyclinE, CDK3/cyclinE, CDK5/p35. CDK6/cyclinD3:
(§5) In a final reaction volume of 25 μl, the enzyme (5-10 mU) is incubated with 8 mM MOPS pH 7.0, 0.2 mM EDTA, 0.1 mg/ml histone H1, 10 mM MgAcetate and [γ-^33P-ATP] (specific activity approx 500 cpm/pmol, concentration as required). The reaction is initiated by the addition of Mg^2+ [γ-^33P-ATP]. After incubation for 40 minutes at room temperature the reaction is stopped by the addition of 5 μl of a 3% phosphoric acid solution. 10 ml of the reaction is spotted onto a P30 filter mat and washed 3 times for 5 minutes in 75 mM phosphoric acid and once in methanol prior to drying and counting.

For assay [3], the target named is CDK3/cyclinE (Homo sapiens, UniProt Q00526). As to the kind of experiment: CDK selectivity assay, CDK3. It counts as biochemical. The following applies: read-out: IC50 against CDK 3. The procedure: as §1, §2, §3, §4, §5
The target of assay [4] is CDK5/p35 (Homo sapiens, UniProt Q00535). Briefly: CDK selectivity assay, CDK5. It counts as biochemical. As to conditions: read-out: IC50 against CDK 5. On the procedure: as §1, §2, §3, §4, §5
Assay [5] deals with HCT-116 cell line. Briefly: Anti-proliferative activity, inhibition of cell growth (Alamar Blue assay). It counts as cell-based. The following applies: Homo sapiens, 72 hours with compound. On the procedure:
The anti-proliferative activity of the compounds of the invention has been determined by measuring inhibition of cell growth in the HCT-116 cell line.
The anti-proliferative activities of compounds of the invention were determined by measuring the ability of the compounds to inhibition of cell growth in a number of cell lines. Inhibition of cell growth was measured using the Alamar Blue assay (Nociari, M. M, Shalev, A., Benias, P., Russo, C. Journal of Immunological Methods 1998, 213, 157-167). The method is based on the ability of viable cells to reduce resazurin to its fluorescent product resorufin. For each proliferation assay cells were plated onto 96 well plates and allowed to recover for 16 hours prior to the addition of inhibitor compounds for a further 72 hours. At the end of the incubation period 10% (v/v) Alamar Blue was added and incubated for a further 6 hours prior to determination of fluorescent product at […]. In the case of the non-proliferating cell assay cells were maintained at confluence for 96 hour prior to the addition of inhibitor compounds for a further 72 hours. The number of viable cells was determined by Alamar Blue assay as before. All cell lines were obtained from ECACC (European Collection of cell Cultures).
In general terms: Resazurin is reduced to fluorescent resorufin, in cell work by metabolically active cells.

Assay [6] concerns the target GSK3β (human) (Homo sapiens, UniProt P49841). Briefly: Inhibitory activity against glycogen synthase kinase-3 (GSK-3). It counts as biochemical. The following applies: read-out: IC50 against GSK30. The procedure:
GSK3β (human) is diluted to a 10× working stock in 50 mM Tris pH 7.5, 0.1 mM EGTA, 0.1 mM sodium vanadate, 0.1% β-mercaptoethanol, 1 mg/ml BSA. One unit equals the incorporation of 1 nmol of phosphate per minute phospho-glycogen synthase peptide 2 per minute.
as §5, with “GSK3β” for “the enzyme”, “MOPS” for “MOPS pH”, “20 μM […](p)EDEEE (phospho GS2 peptide),” for “0.1 mg/ml histone H1,”, “Mg^2+[γ-^33P-ATP].” for “Mg^2+ [γ-^33P-ATP].”, “μl” for “ml”, “50” for “75”

For orientation: inhibition means the drop in the measured response relative to a control, in per cent. For orientation: IC50 means the point on the concentration scale where inhibition reaches its midpoint.

CDK5/p35, sequence (Q00535 whole entry): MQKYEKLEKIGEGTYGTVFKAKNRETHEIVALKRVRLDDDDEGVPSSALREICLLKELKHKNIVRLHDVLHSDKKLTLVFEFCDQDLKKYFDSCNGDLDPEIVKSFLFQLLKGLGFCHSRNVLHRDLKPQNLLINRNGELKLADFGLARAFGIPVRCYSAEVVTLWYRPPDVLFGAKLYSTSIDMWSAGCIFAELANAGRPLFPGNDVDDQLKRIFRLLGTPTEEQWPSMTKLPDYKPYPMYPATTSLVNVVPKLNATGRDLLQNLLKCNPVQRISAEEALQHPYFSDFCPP
CDK5/p35, sequence (Q15078 whole entry partner): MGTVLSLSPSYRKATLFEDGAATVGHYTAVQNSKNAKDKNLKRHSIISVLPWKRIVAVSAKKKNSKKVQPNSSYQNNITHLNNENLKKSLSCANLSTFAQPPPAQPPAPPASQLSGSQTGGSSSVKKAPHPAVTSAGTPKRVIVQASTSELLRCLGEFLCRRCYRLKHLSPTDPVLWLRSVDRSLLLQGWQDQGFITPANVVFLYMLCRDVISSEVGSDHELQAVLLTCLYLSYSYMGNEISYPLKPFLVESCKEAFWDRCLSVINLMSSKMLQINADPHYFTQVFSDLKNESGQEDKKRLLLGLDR
CDK1/cyclinB, sequence (P06493 whole entry): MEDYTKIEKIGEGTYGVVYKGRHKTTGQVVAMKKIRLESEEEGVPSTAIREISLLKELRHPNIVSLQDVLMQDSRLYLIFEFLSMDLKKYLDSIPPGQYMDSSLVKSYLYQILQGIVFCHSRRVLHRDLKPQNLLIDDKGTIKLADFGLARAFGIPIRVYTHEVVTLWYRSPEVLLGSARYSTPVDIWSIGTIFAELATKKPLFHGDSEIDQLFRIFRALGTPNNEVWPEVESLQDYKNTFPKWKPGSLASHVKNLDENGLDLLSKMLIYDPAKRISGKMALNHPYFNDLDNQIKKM
CDK1/cyclinB, sequence (P14635 whole entry partner): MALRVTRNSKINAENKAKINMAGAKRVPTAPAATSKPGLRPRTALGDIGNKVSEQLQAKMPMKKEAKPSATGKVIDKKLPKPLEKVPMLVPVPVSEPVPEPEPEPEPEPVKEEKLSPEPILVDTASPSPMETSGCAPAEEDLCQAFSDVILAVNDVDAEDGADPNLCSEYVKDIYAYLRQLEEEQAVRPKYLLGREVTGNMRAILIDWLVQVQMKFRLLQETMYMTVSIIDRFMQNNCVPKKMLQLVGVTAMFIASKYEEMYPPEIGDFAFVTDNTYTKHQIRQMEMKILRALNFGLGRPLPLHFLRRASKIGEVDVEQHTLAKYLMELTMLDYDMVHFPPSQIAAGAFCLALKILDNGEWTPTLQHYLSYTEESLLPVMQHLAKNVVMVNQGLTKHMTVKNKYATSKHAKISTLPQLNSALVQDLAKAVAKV
CDK3/cyclinE, sequence (Q00526 whole entry): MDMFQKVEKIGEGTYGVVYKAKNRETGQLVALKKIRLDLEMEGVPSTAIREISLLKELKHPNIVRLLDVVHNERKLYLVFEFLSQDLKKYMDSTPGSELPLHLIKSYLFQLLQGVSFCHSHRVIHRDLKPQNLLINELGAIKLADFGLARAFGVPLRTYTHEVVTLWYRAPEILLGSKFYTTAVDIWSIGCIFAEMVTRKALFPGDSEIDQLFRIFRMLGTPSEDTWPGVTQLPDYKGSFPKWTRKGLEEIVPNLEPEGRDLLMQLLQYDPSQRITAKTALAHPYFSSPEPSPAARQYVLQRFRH
CDK3/cyclinE, sequence (P24864 whole entry partner): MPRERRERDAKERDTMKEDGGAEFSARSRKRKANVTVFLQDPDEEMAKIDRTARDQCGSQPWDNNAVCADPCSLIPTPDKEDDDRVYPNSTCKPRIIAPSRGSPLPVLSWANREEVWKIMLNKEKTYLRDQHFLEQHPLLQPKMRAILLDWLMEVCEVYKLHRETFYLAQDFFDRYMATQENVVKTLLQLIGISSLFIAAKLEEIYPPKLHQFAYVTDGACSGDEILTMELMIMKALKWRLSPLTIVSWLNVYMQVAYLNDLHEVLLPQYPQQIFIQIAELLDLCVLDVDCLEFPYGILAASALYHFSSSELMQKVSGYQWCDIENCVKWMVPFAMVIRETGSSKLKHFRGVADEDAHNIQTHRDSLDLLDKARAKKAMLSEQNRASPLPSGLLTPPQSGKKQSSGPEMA
GSK3β (human), sequence (P49841 whole entry): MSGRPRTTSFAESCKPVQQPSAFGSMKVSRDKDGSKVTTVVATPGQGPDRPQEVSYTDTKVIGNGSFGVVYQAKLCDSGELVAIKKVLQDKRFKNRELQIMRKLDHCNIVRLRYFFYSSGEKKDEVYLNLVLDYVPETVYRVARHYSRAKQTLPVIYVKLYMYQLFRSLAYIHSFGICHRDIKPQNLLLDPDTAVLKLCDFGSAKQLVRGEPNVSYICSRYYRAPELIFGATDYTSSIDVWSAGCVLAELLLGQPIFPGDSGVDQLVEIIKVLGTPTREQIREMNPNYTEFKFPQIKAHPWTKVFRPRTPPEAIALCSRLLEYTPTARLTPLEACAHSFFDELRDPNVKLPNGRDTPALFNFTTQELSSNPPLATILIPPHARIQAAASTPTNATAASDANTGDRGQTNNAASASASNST

As to `Cc1cccc(Cl)c1C(=O)Nc1c[nH]nc1-c1nc2ccccc2[nH]1` [Example 57], the inhibition at 0.003 µM in assay [1] is 41%.
On to `CC(C)(C)NCc1cccc2[nH]c(-c3n[nH]cc3NC(=O)c3c(F)cccc3F)nc12` [Example 14, N-{3-[4-(tert-Butylamino-methyl)-1H-benzimidazol-2-yl]-1H-pyrazol-4-yl}-2,6-difluoro-benzamide], for which the IC50 in assay [2], in assay [3] and in assay [4] was below 1000 nM throughout.
As to `O=C(Nc1c[nH]nc1-c1nc2ccccc2[nH]1)c1c(F)cc(F)cc1F` [Example 56], in assay [1], the inhibition at 0.003 µM worked out at 58%.
Turning to `O=C(Nc1c[nH]nc1-c1nc2ccccc2[nH]1)c1c(Cl)cccc1Cl` [Example 59], the inhibition at 0.003 µM in assay [1] was found to be 67%.
Take `Cc1cc2nc(-c3n[nH]cc3NC(=O)c3c(F)cccc3F)[nH]c2cc1C` [Example 73]: the figures for the IC50 in assay [1] and in assay [5] were 4.6 nM and 490 nM, respectively.
With `O=C(Nc1c[nH]nc1-c1nc2ccccc2[nH]1)c1ccccc1` [Compound A, reference compound], the IC50 in assay [1] came out at 96.7 nM.
With `CN1CCN(C(=O)c2ccc3[nH]c(-c4n[nH]cc4NC(=O)c4c(F)cccc4F)nc3c2)CC1` [Example 21, 2,6-Difluoro-N-{3-[5-(4-methyl-piperazine-1-carbonyl)-1H-benzimidazol-2-yl]-1H-pyrazol-4-yl}-benzamide], the IC50 in assay [2], in assay [3] and in assay [4] was below 1000 nM in each case.
For the molecule `O=C(Nc1c[nH]nc1-c1nc2c(CN3CCOCC3)cccc2[nH]1)c1c(F)cccc1F` [Example 12, 2,6-Difluoro-N-[3-(4-morpholin-4-yl-methyl-1H-benzimidazol-2-yl)-1H-pyrazol-4-yl]-benzamide], the IC50 in assay [2], in assay [6], in assay [3] and in assay [4] was below 1000 nM each time.
Take `Cc1ccc(C(=O)Nc2c[nH]nc2-c2nc3cc(C)c(C)cc3[nH]2)cc1` [Compound B, reference compound]: the IC50 in assay [1] stood at 3000 nM; in assay [5], 5700 nM.
With `O=C(Nc1c[nH]nc1-c1nc2ccccc2[nH]1)c1c(F)cccc1F` [Example 6, N-[3-(1H-Benzimidazol-2-yl)-1H-pyrazol-4-yl]-2,6-difluoro-benzamide], the IC50 in assay [2] is below 1000 nM; in assay [6] it was below 1000 nM; in assay [3], below 1000 nM; in assay [1], 4.8 nM; in assay [4] it was below 1000 nM.
For `CN1CCN(Cc2cccc3[nH]c(-c4n[nH]cc4NC(=O)c4c(F)cccc4F)nc23)CC1` [Example 13, 2,6-Difluoro-N-[3-(N-methyl-piperazinyl-4-ylmethyl-1H-benzimidazol-2-yl)-1H-pyrazol-4-yl]-benzamide], the IC50 in assay [2], in assay [3] and in assay [4] was below 1000 nM throughout.
For `O=C(Nc1c[nH]nc1-c1nc2ccccc2[nH]1)c1c(F)cccc1Cl` [Example 43], in assay [1], the inhibition at 0.003 µM came out at 52%.
Turning to `COc1cccc(F)c1C(=O)Nc1c[nH]nc1-c1nc2ccccc2[nH]1` [Example 44], in assay [1], the inhibition at 0.003 µM worked out at 57%.
Regarding `COc1cc(F)c(C(=O)Nc2c[nH]nc2-c2nc3ccccc3[nH]2)c(F)c1` [Example 41], the IC50 in assay [2], in assay [3] and in assay [4] was below 1000 nM in each case.
